Measured values as given in the NIST ThermoML archive (doi:10.1021/je3007474).

Assay: xn = mol fraction of the nth substance listed
Conditions: 101 kPa, Liquid; for viscosity: Falling or rolling sphere viscometry; for mass density: Vibrating tube method

CCCCn1cc[n+](C)c1C.F[B-](F)(F)F [1-butyl-2,3-dimethylimidazolium tetrafluoroborate] + CC#N
Conditions | mass density [kg/m3] | viscosity [mPa·s]
298.15 K, x1 = 0.1118 | 919.74 | 1.045
298.15 K, x1 = 0.1536 | 957.71 | –
298.15 K, x1 = 0.2247 | 1008.5 | 2.637
298.15 K, x1 = 0.3784 | 1079.62 | 8.933
298.15 K, x1 = 0.4601 | 1104.79 | –
298.15 K, x1 = 0.5515 | 1127.21 | 32.3
298.15 K, x1 = 0.666 | 1149.45 | 67.72
298.15 K, x1 = 0.7581 | 1163.71 | 143.9
298.15 K, x1 = 0.8423 | 1174.52 | 241.4
298.15 K, x1 = 1 | 1193.19 | 650
303.15 K, x1 = 0.1118 | 915.06 | 0.982
303.15 K, x1 = 0.1536 | 953.22 | –
303.15 K, x1 = 0.2247 | 1004.26 | 2.438
303.15 K, x1 = 0.3784 | 1075.69 | 7.746
303.15 K, x1 = 0.4601 | 1100.98 | –
303.15 K, x1 = 0.5515 | 1123.51 | 26.37
303.15 K, x1 = 0.666 | 1145.88 | 52.92
303.15 K, x1 = 0.7581 | 1160.23 | 108.2
303.15 K, x1 = 0.8423 | 1171.09 | 176.3
303.15 K, x1 = 1 | 1189.8 | 447
313.15 K, x1 = 0.1118 | 905.7 | 0.873
313.15 K, x1 = 0.1536 | 944.25 | –
313.15 K, x1 = 0.2247 | 995.79 | 2.071
313.15 K, x1 = 0.3784 | 1067.89 | 5.997
313.15 K, x1 = 0.4601 | 1093.41 | –
313.15 K, x1 = 0.5515 | 1116.15 | 18.33
313.15 K, x1 = 0.666 | 1138.75 | 34.34
313.15 K, x1 = 0.7581 | 1153.24 | 65.14
313.15 K, x1 = 0.8423 | 1164.22 | 102.2
313.15 K, x1 = 1 | 1183.02 | 232.9
323.15 K, x1 = 0.1118 | 896.31 | 0.783
323.15 K, x1 = 0.1536 | 935.27 | –
323.15 K, x1 = 0.2247 | 987.34 | 1.781
323.15 K, x1 = 0.3784 | 1060.12 | 4.784
323.15 K, x1 = 0.4601 | 1085.88 | –
323.15 K, x1 = 0.5515 | 1108.85 | 13.36
323.15 K, x1 = 0.666 | 1131.67 | 23.63
323.15 K, x1 = 0.7581 | 1146.32 | 42.26
323.15 K, x1 = 0.8423 | 1157.4 | 63.15
323.15 K, x1 = 1 | 1176.38 | 132.8
333.15 K, x1 = 0.1118 | 886.87 | 0.714
333.15 K, x1 = 0.1536 | 926.27 | –
333.15 K, x1 = 0.2247 | 978.89 | 1.551
333.15 K, x1 = 0.3784 | 1052.37 | 3.914
333.15 K, x1 = 0.4601 | 1078.37 | –
333.15 K, x1 = 0.5515 | 1101.56 | 10.11
333.15 K, x1 = 0.666 | 1124.62 | 17.06
333.15 K, x1 = 0.7581 | 1139.41 | 28.89
333.15 K, x1 = 0.8423 | 1150.59 | 41.76
333.15 K, x1 = 1 | 1169.82 | 81.53
343.15 K, x1 = 0.1118 | 877.39 | 0.572
343.15 K, x1 = 0.1536 | 917.25 | –
343.15 K, x1 = 0.2247 | 970.44 | 1.369
343.15 K, x1 = 0.3784 | 1044.64 | 3.264
343.15 K, x1 = 0.4601 | 1070.89 | –
343.15 K, x1 = 0.5515 | 1094.31 | 7.897
343.15 K, x1 = 0.666 | 1117.6 | 12.79
343.15 K, x1 = 0.7581 | 1132.51 | 20.7
343.15 K, x1 = 0.8423 | 1143.79 | 30
343.15 K, x1 = 1 | 1163.26 | 53.99

CCCCn1cc[n+](C)c1C.F[B-](F)(F)F [1-butyl-2,3-dimethylimidazolium tetrafluoroborate] + C[S+](C)[O-]
Conditions | mass density [kg/m3] | viscosity [mPa·s]
298.15 K, x1 = 0.138 | 1128.27 | 5.197
298.15 K, x1 = 0.2292 | 1142.83 | 9.384
298.15 K, x1 = 0.3151 | 1153.4 | 16.2
298.15 K, x1 = 0.4079 | 1162.44 | 28.31
298.15 K, x1 = 0.5334 | 1172.17 | 60.17
298.15 K, x1 = 0.6374 | 1178.33 | 108.3
298.15 K, x1 = 0.7004 | 1181.74 | 160.1
298.15 K, x1 = 0.7952 | 1185.94 | –
298.15 K, x1 = 0.8785 | 1189.03 | 370.4
298.15 K, x1 = 1 | 1193.19 | 650
303.15 K, x1 = 0.138 | 1123.85 | 4.594
303.15 K, x1 = 0.2292 | 1138.65 | 8.077
303.15 K, x1 = 0.3151 | 1149.37 | 13.58
303.15 K, x1 = 0.4079 | 1158.58 | 23.32
303.15 K, x1 = 0.5334 | 1168.48 | 47.09
303.15 K, x1 = 0.6374 | 1174.75 | 82.19
303.15 K, x1 = 0.7004 | 1178.22 | 119.4
303.15 K, x1 = 0.7952 | 1182.45 | –
303.15 K, x1 = 0.8785 | 1185.53 | 263.2
303.15 K, x1 = 1 | 1189.8 | 447
313.15 K, x1 = 0.138 | 1115.07 | 3.654
313.15 K, x1 = 0.2292 | 1130.35 | 6.142
313.15 K, x1 = 0.3151 | 1141.4 | 9.873
313.15 K, x1 = 0.4079 | 1150.89 | 15.99
313.15 K, x1 = 0.5334 | 1161.12 | 30.51
313.15 K, x1 = 0.6374 | 1167.61 | 50.32
313.15 K, x1 = 0.7004 | 1171.2 | 70.58
313.15 K, x1 = 0.7952 | 1175.55 | –
313.15 K, x1 = 0.8785 | 1178.68 | 144.9
313.15 K, x1 = 1 | 1183.02 | 232.9
323.15 K, x1 = 0.138 | 1106.3 | 2.981
323.15 K, x1 = 0.2292 | 1122.07 | 4.831
323.15 K, x1 = 0.3151 | 1133.47 | 7.481
323.15 K, x1 = 0.4079 | 1143.24 | 11.64
323.15 K, x1 = 0.5334 | 1153.77 | 20.96
323.15 K, x1 = 0.6374 | 1160.48 | 33.05
323.15 K, x1 = 0.7004 | 1164.2 | 44.88
323.15 K, x1 = 0.7952 | 1168.71 | –
323.15 K, x1 = 0.8785 | 1171.96 | 86.55
323.15 K, x1 = 1 | 1176.38 | 132.8
333.15 K, x1 = 0.138 | 1097.56 | 2.49
333.15 K, x1 = 0.2292 | 1113.83 | 3.906
333.15 K, x1 = 0.3151 | 1125.56 | 5.851
333.15 K, x1 = 0.4079 | 1135.62 | 8.806
333.15 K, x1 = 0.5334 | 1146.46 | 15.18
333.15 K, x1 = 0.6374 | 1153.38 | 22.96
333.15 K, x1 = 0.7004 | 1157.22 | 30.3
333.15 K, x1 = 0.7952 | 1161.88 | –
333.15 K, x1 = 0.8785 | 1165.23 | 55.64
333.15 K, x1 = 1 | 1169.82 | 81.53
343.15 K, x1 = 0.138 | 1088.84 | 2.115
343.15 K, x1 = 0.2292 | 1105.61 | 3.23
343.15 K, x1 = 0.3151 | 1117.7 | 4.708
343.15 K, x1 = 0.4079 | 1128.03 | 6.868
343.15 K, x1 = 0.5334 | 1139.19 | 11.46
343.15 K, x1 = 0.6374 | 1146.31 | 16.7
343.15 K, x1 = 0.7004 | 1150.26 | 21.53
343.15 K, x1 = 0.7952 | 1155.06 | –
343.15 K, x1 = 0.8785 | 1158.52 | 37.74
343.15 K, x1 = 1 | 1163.26 | 53.99
353.15 K, x1 = 0.138 | 1080.12 | 1.826
353.15 K, x1 = 0.2292 | 1097.41 | 2.724
353.15 K, x1 = 0.3151 | 1109.86 | 3.873
353.15 K, x1 = 0.4079 | 1120.49 | 5.501
353.15 K, x1 = 0.5334 | 1131.96 | 8.897
353.15 K, x1 = 0.6374 | 1139.27 | 12.73
353.15 K, x1 = 0.7004 | 1143.34 | 16.03
353.15 K, x1 = 0.7952 | 1148.27 | –
353.15 K, x1 = 0.8785 | 1151.83 | 26.75
353.15 K, x1 = 1 | 1156.71 | 37.13
